# Data: article PMC8205030, “Methoxy and bromo scans on N-(5-methoxyphenyl) methoxybenzenesulphonamides reveal potent cytotoxic compounds, especially against the human breast adenocarcinoma MCF7 cell line” (Journal of Enzyme Inhibition and Medicinal Chemistry, 2021)
# What was measured:
# [1] = target: T1, microtubular protein isolated from calf brain (Bos taurus, UniProt P81947+Q6B856); test: Inhibition of tubulin polymerisation (turbidity); format: biochemical
# T1 construct: isolated from calf brain according to the modified Shelanski method; from tissue; host or cells: calf brain
# T1 sequence (Q6B856 whole entry): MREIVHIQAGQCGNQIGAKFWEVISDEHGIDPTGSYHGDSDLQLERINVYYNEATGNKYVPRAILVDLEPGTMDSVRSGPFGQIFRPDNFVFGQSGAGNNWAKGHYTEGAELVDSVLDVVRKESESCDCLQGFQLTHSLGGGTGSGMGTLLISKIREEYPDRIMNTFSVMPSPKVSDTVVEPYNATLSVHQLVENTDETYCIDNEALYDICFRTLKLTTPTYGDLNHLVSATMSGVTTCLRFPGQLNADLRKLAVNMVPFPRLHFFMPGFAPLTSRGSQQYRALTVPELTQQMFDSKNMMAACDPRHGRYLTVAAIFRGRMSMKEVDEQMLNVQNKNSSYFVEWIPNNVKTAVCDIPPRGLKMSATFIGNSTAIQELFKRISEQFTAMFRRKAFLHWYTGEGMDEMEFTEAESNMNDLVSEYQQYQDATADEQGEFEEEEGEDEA
# T1 sequence (P81947 whole entry): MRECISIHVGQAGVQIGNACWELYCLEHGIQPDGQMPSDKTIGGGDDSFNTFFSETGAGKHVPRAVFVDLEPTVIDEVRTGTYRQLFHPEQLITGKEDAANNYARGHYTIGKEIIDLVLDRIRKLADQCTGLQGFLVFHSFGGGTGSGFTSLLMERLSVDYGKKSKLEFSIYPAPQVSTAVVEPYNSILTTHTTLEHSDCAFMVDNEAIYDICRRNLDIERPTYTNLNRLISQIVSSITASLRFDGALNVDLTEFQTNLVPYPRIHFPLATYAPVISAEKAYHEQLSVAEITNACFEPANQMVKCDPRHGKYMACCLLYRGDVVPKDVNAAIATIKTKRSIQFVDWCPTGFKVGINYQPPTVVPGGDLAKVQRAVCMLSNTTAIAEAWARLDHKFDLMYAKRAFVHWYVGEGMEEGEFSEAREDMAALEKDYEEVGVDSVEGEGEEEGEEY
# [2] = system: MCF7 (human breast carcinoma) cells; test: Cell growth assay (XTT), MCF7; format: cell-based; conditions: Homo sapiens, MCF7; 72 h drug exposure, XTT; read-out: Antiproliferative activity IC50 MCF7
# Method in brief: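 Cells (1.5 × 10^4 cells/mL for MCF7, HeLa, HEK293; 3 × 10^4 cells/mL for HT-29) attached 24 h, then treated 72 h at 37 °C, 5% CO2. Screened at 1 µM; IC50 versus untreated controls from 10^−5 to 10^−10 M by nonlinear fit. XTT/PMS absorbance at 450 nm after 4 h (MCF7, HeLa) or 6 h (HT-29, HEK293); HT-29 with 10 µM verapamil.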
# HeLa cells = test: Apoptotic cell death quantification (Annexin V-FITC/PI), HeLa; format: cell-based, human; conditions: 72 h
# Description: (§1) MCF7, HeLa, and HT-29 apoptotic cells were quantified using an Annexin V-FITC/PI apoptosis detection kit (Immunostep, Salamanca, Spain) according to the manufacturer’s guidelines. 1.5 ml/well of cells in the exponential growth phase at 2 × 10^4 cells/mL were seeded onto 12-well plates and left to attach overnight. After 24 h incubation, cells were treated with compound 25 at 87.5 or 175 nM. 72 h post-treatment, attached and floating cells of treated and untreated wells were collected, centrifuged, resuspended in the Annexin V binding buffer, and stained with Annexin V-FITC/PI. Cells were then incubated in darkness at room temperature for 15 min and a total of 30,000 cells were acquired and analysed using the BD Accuri™ C6 Plus Flow Cytometer and Software (version 1.0.264.21, BD Biosciences, San José, CA, USA), respectively. Compounds were dissolved in DMSO and the final solvent concentrations never exceeded 0.5% (v/v). Control wells included cells with 0.5% (v/v) DMSO.
# [3] = Aqueous solubility (saturation shake-flask, UV); format: physicochemical; conditions: aqueous buffer, thermodynamic from solid, pH 7.0 phosphate buffer, room temperature
# Description: The aqueous solubility was determined in a Helios-α UV-320 Spectrophotometer Thermo-Spectronic, Thermo Fischer Scientific, Waltham, MA, USA) using an approach based on the saturation shake-flask method. 1–2 mg of each selected compound was suspended in 300 µL pH 7.0 buffer and stirred for 48 h at room temperature. The resulting mixture was filtered through a […] filter to discard the insoluble residues. A scan between 270 and 400 nm for the tested compound was performed and three wavelengths of maximum absorbance were selected. Calibration curves were performed at these wavelengths and the concentration in the supernatant was measured by UV absorbance. The final value was given as the average of the three measurements.
# MCF7 cells = test: Apoptotic cell death quantification (Annexin V-FITC/PI), MCF7; format: cell-based, human; conditions: 72 h
# Description: as §1
structure (smiles),measurement,setting,value
"COc1ccc(S(=O)(=O)N(CC#N)c2cc(OC)c(Br)cc2OC)cc1 [Compound 25, N-(4-bromo-2,5-dimethoxyphenyl)-N-(cyanomethyl)-4-methoxybenzenesulphonamide]",TPI % 10 µM,"[1]; 10 µM compound, 1.5 mg/mL microtubular protein",51%
same,IC50,"[1]; in vitro tubulin polymerisation inhibition, read-out: TPI IC50",7.6 µM
same,IC50,[2],0.086 µM
same,Early apoptosis,HeLa cells; 87.5 nM,52.3%
same,Late apoptosis,HeLa cells; 87.5 nM,39.7%
same,Live (AnV–/PI–),HeLa cells; 87.5 nM,6.5%
same,Necrosis,HeLa cells; 87.5 nM,1.5%
same,Early apoptosis,HeLa cells; 175 nM,47.5%
same,Late apoptosis,HeLa cells; 175 nM,45.3%
same,Live (AnV–/PI–),HeLa cells; 175 nM,4.1%
same,Necrosis,HeLa cells; 175 nM,3.1%
same,Apoptotic profile,HeLa cells; 87.5 and 175 nM,> 90%
same,solubility at 48 h,[3],1 µg/mL
same,Early apoptosis,"MCF7 cells; MCF7, 87.5 nM",11.7%
same,Late apoptosis,"MCF7 cells; MCF7, 87.5 nM",5.8%
same,Live (AnV–/PI–),"MCF7 cells; MCF7, 87.5 nM",82.1%
same,Necrosis,"MCF7 cells; MCF7, 87.5 nM",0.5%
same,Apoptotic cells,"MCF7 cells; MCF7, 175 nM",33%
same,Early apoptosis,"MCF7 cells; MCF7, 175 nM",23.8%
same,Late apoptosis,"MCF7 cells; MCF7, 175 nM",9.5%
same,Live (AnV–/PI–),"MCF7 cells; MCF7, 175 nM",65.7%
same,Necrosis,"MCF7 cells; MCF7, 175 nM",1.0%
same,Apoptotic cells,"MCF7 cells; MCF7, lowest concentration (87.5 nM)",18%
